Measured values from the NIST ThermoML archive (doi:10.1016/j.jct.2017.07.013).

Test: xn = mol fraction of the nth substance listed
Details: 101.3 kPa, Liquid; for speed of sound: Frequency=3 MHz, Single path-length method; for mass density: Vibrating tube method

CCCC[n+]1ccn(C)c1.O=S(=O)([N-]S(=O)(=O)C(F)(F)F)C(F)(F)F + COC(=O)OC
Details | mass density, 303.15 K [kg/m3] | mass density, 308.15 K [kg/m3] | mass density, 313.15 K [kg/m3] | mass density, 318.15 K [kg/m3] | mass density, 323.15 K [kg/m3] | speed of sound, 303.15 K [m/s] | speed of sound, 308.15 K [m/s] | speed of sound, 313.15 K [m/s] | speed of sound, 318.15 K [m/s] | speed of sound, 323.15 K [m/s]
x1 = 0.0512 | 1120.1 | 1113.8 | 1107.5 | 1101.2 | 1094.9 | 1187 | 1167.2 | 1147.5 | 1127.6 | 1108.3
x1 = 0.101 | 1168.9 | 1163 | 1157 | 1151 | 1145 | 1196.1 | 1177.7 | 1159.4 | 1141 | 1123
x1 = 0.1495 | 1207.1 | 1201.3 | 1195.5 | 1189.8 | 1184 | 1203.7 | 1186.5 | 1169.4 | 1152.4 | 1135.6
x1 = 0.1945 | 1236.1 | 1230.5 | 1224.9 | 1219.3 | 1213.7 | 1209.2 | 1192.9 | 1176.8 | 1160.8 | 1144.9
x1 = 0.2994 | 1288.3 | 1282.9 | 1277.6 | 1272.2 | 1266.9 | 1215.4 | 1200.7 | 1186.2 | 1171.7 | 1157.4
x1 = 0.3999 | 1324.3 | 1319.1 | 1313.9 | 1308.8 | 1303.6 | 1217.4 | 1203.8 | 1190.3 | 1176.9 | 1163.6
x1 = 0.4976 | 1351.4 | 1346.3 | 1341.2 | 1336.2 | 1331.1 | 1217.7 | 1204.9 | 1192.1 | 1179.5 | 1166.9
x1 = 0.5842 | 1370.7 | 1365.6 | 1360.7 | 1355.7 | 1350.7 | 1217.4 | 1205 | 1192.8 | 1180.6 | 1168.6
x1 = 0.6886 | 1389.7 | 1384.8 | 1379.8 | 1374.9 | 1370.1 | 1217.4 | 1205.5 | 1193.7 | 1182.1 | 1170.5
x1 = 0.7475 | 1399 | 1394.1 | 1389.2 | 1384.3 | 1379.5 | 1217.2 | 1205.6 | 1194 | 1182.6 | 1171.3
x1 = 0.8014 | 1406.6 | 1401.8 | 1396.9 | 1392.1 | 1387.3 | 1217 | 1205.6 | 1194.2 | 1183 | 1171.8
x1 = 0.889 | 1417.4 | 1412.6 | 1407.8 | 1403 | 1398.2 | 1216.8 | 1205.6 | 1194.5 | 1183.6 | 1172.7
x1 = 0.9526 | 1424.2 | 1419.4 | 1414.6 | 1409.9 | 1405.1 | 1216.8 | 1205.7 | 1194.8 | 1184 | 1173.3
x1 = 1 | 1428.9 | 1424.1 | 1419.4 | 1414.6 | 1409.9 | 1216.8 | 1205.8 | 1195 | 1184.2 | 1173.6
